Laboratory results from patent US4992442A, “Pyrrolo(3,2-e)pyrazolo(1,5-a)pyrimidine derivative and medicine comprising the same” (Pola Chemical Industries Inc., Japan, priority 1988, dated 1991).

Key:
[1] = tested on: basilar artery; test: Vasodilative activity, Magnus method, dog basilar artery contracted with PGF2 α; details: Canis lupus familiaris; PGF2 α 5×10^-6 M; read-out: 50% Contraction-inhibitive Concentrations, Basilar Artery, PGF2 α
Procedure: (§1) A bastard, male, adult dog weighing about 8-10 kg was anesthetized with pentobarbital sodium (25 mg/kg, i.v.) and killed by bleeding. Its basilar and coronary arteries were immediately extracted. […] Static tensions of the ring were isometrically measured and recorded.
(§2) Test compounds were accumulatively given to specimens contracted with 1×10^-7 M (final concentration) U-46619 to the final concentration of 1×10^-7 to 1×10^-4 M to investigate their vasodilative activities.
(§3) The vasodilative activity and coronary blood flow increase activity were respectively measured according to the following Methods 1 and 2.
(§4) The same Magnus method was used as in Experimental Example 1, except that instead of 1×10^-7 M (final concentration) U-46619, 5×10^-6 M (final concentration), PGF2 α or 60 mM potassium chloride was used.

[2] = tested on: basilar artery; test: Vasodilative activity, Magnus method, dog basilar artery contracted with potassium chloride; details: Canis lupus familiaris; 60 mM potassium chloride; read-out: 50% Contraction-inhibitive Concentrations, Basilar Artery, KCl
Procedure: as §1, §2, §3, §4

[3] = tested on: coronary artery; test: Vasodilative activity, Magnus method, dog coronary artery contracted with PGF2 α; details: Canis lupus familiaris; PGF2 α 5×10^-6 M; read-out: 50% Contraction-inhibitive Concentrations, Coronary Artery, PGF2 α
Procedure: as §1, §2, §3, §4

[4] = tested on: coronary artery; test: Vasodilative activity, Magnus method, dog coronary artery contracted with potassium chloride; details: Canis lupus familiaris; 60 mM potassium chloride; read-out: 50% Contraction-inhibitive Concentrations, Coronary Artery, KCl
Procedure: as §1, §2, §3, §4

[5] = tested on: trachea; test: Tracheal expansion activity against acetyl choline (ACh) induced tracheal contraction; parameters: species or system Hartley guinea pig; details: for IC50: Cavia porcellus, ACh 1×10^-6 M, read-out: 50% Contraction-inhibitive Concentration, ACh Contraction; for Ratio of Effectiveness, ACh Contraction: reverse ratio of 50% contraction-inhibitive concentration to that of theophylline
From the text: (§5) Tracheal expansion activity against tracheal contraction induced by acetyl choline (ACh) and histamine (His)
(§6) A Hartley guinea pigs (male, weight: 400-500 g) was killed by bleeding and its trachea was immediately extracted. […] Static tensions was isometrically measured.

[6] = tested on: trachea; test: Tracheal expansion activity against histamine (His) induced tracheal contraction; parameters: species or system Hartley guinea pig; details: for IC50: Cavia porcellus, His 1×10^-6 M, read-out: 50% Contraction-inhibitive Concentration, His Contraction; for Ratio of Effectiveness, His Contraction: reverse ratio of 50% contraction-inhibitive concentration to that of theophylline
From the text: as §5, §6

[7] = Acute toxicity test, oral, mice; details: mouse, in vivo, ICR male mice, 14 days observation
Procedure: An acute toxicity test on compounds of the present invention was performed according to the following method.
ICR male mice were purchased at 4 weeks of age and fed for 10 days before testing. The test compound suspended in 1% methylcellullose solution was orally administered using a metallic gaster probe at a dose of 0.1 ml (as the test compound) per […] of body weight. The mice were fasted for 15 hours before the administration. Observation was made for 14 days after the administration, and the LD50 value was determined from the survival rate by the Richfield Wilcoxin method.

[8] = tested on: coronary blood flow; test: Coronary blood flow increase activity in anesthetized dog; format: in vivo; details: maximum flow relative to before administration
From the text: as §3
The heart was exposed by an incision into pericardium through the left quartus costa rib. About 1 cm of a coronary vessel was peeled off from the surrounding tissues at about 1 cm from the left ramus circumplexus and a blood flow meter probe was installed for measuring the coronary blood flow. Left ventricle pressure, heart rate, right femoral artery pressure, and lower extremity blood flow rate were monitored. All test compounds were intravenously administered.
The maximum coronary blood flow rates achieved after the administration as a percentage of the blood flow before administration was taken as the coronary blood flow increase activity.

| Compound | IC50 [1] | IC50 [2] | IC50 [3] | IC50 [4] | IC50 [5] | Ratio of Effectiveness, ACh Contraction [5] | IC50 [6] | Ratio of Effectiveness, His Contraction [6] | LD50 at 336 h [7] | Rate of Coronary Blood Flow Increase, 50 μg/kg (iv) [8] | Rate of Coronary Blood Flow Increase, 100 μg/kg (iv) [8] |
| --- | --- | --- | --- | --- | --- | --- | --- | --- | --- | --- | --- |
| Cc1nc2c(C#N)cnn2c2c1CCN2N1CCOCC1 [Compound No. 10, 3-cyano-6,7-dihydro-5-methyl-8-(4-morpholyl)-8H-pyrrolo[3,2-e]yrazolo[1,5-a]pyrimidine] | > 100 µM | > 100 µM | > 100 µM | > 100 µM | 1.3 µM | 3.9 | 5 µM | 1.3 | ≥ 1000 mg/kg |  |  |
| CCCCN1CCc2c(C)nc3c(C#N)cnn3c21 [Compound No. 3, 8-butyl-3-cyano-6,7-dihydro-5-methyl-8H-pyrrolo [3,2-e]pyrazolo[1,5-a]pyrimidine] | > 100 µM | 34 µM | > 100 µM | > 100 µM |  |  | 30 µM | 2.1 | ≥ 1000 mg/kg | 11.5 ± 4.6% | 37.9 ± 16.3% |
| Cc1nc2c(C#N)cnn2c2c1CCN2CC(C)C [Compound No. 4, 8-iso-butyl-3-cyano-6,7-dihydro-5-methyl-8H-pyrrolo [3,2-e]pyrazolo[1,5-a]pyrimidine] | > 100 µM | 43 µM | 25 µM | 100 µM |  |  |  |  | ≥ 1000 mg/kg | 20.4 ± 6.3% | 52.8 ± 21.1% |
| CCCCCN1CCc2c(C)nc3c(C#N)cnn3c21 [Compound No. 6, 3-cyano-6,7-dihydro-5-methyl-8-pentyl-8H-pyrrolo [3,2-e]pyrazolo[1,5-a]pyrimidine] | > 100 µM | > 100 µM | > 100 µM | > 100 µM | 3.2 µM | 1.6 | 16 µM | 0.4 | ≥ 1000 mg/kg | 7.3 ± 3.1% | 15.4 ± 5.7% |
| Cc1nc2c(C#N)cnn2c2c1CCN2CC1CCCCC1 [Compound No. 9, 3-cyano-8-cyclohexylmethyl-6,7-dihydro-5-methyl-8H-pyrrolo[3,2-e]pyrazolo[1,5-a]pyrimidine] | > 100 µM | > 100 µM | > 100 µM | > 100 µM | 0.79 µM | 6.3 |  |  | ≥ 1000 mg/kg |  |  |
| Cn1c(=O)c2[nH]cnc2n(C)c1=O [Theophylline, reference compound] |  |  |  |  | 5 µM |  | 6.3 µM |  |  |  |  |
